Series [1] can be described thus: Clinical study, PK of Compound 1 in combination with dexamethasone. The series is classed as in vivo, human. The following applies: MM patients, 80 to 640 mg target doses. The procedure:
A dose escalation study is conducted to evaluate the safety and tolerability of Compound 1 in combination with dexamethasone and dexamethasone plus carfilzomib in patients with relapsed/refractory (R/R) multiple myeloma (MM) and t (11;14). Also, the corresponding maximum tolerated dose (MTD)/maximum assessed dose (MAD), recommended Phase 2 dose (RP2D) and pharmacokinetics for Compound 1 in the combination therapies are to be observed.
Compound 1 plus dexamethasone: Patients with R/R MM and t (11;14) receive increasing doses of Compound 1 once daily with starting dose at 80 mg once daily, plus 40 mg of dexamethasone once weekly to determine the safety, tolerability, efficacy, and pharmacokinetics (PK). Upon completion of the dose-limiting toxicity (DLT) window (21 days) and depending on the number of evaluable patients and observed DLTs, the dose of Compound 1 may be de-escalated to 40 mg once daily, stay at 80 mg once daily, or be escalated to 160 mg once daily. Upon dose escalation to 160 mg once daily and provided there are no DLTs observed during the DLT window, the study may be conducted to escalate to a few higher dose levels (up to 640 mg once daily), or to insert some certain intermediate doses between 80 mg and 160 mg once daily.

The test system of series [2] is KMS-12-PE human MM subcutaneous xenograft model. The series is described as follows: KMS-12-PE xenograft model study: tumor growth. The class given is in vivo, NCG mice. The following applies: for Tumor Volume (mm^3) (Mean ± SEM) Day 17: 17 days. The procedure: KMS-12-PE, a human MM cell line, was obtained from Deutsche Sammlung von Mikroorganismen und Zellkulturen (DSMZ, Catalog: ACC 606). KMS-12-PE cells were cultured in RPMI 1640 complete medium, supplemented with 20% (v/v) fetal bovine serum, and 100 μg/mL of penicillin and streptomycin. In this study, cells were used within 10 passages of recovery from liquid nitrogen. KMS-12-PE cells were maintained as suspension cultures at 37° C. in a 5% CO2 atmosphere, being passaged twice weekly. […] Resuspended cells were placed on ice prior to inoculation. The right front flank of each mouse was cleaned with 75% ethanol prior to cell inoculation. Each animal was injected subcutaneously with 3×10^7 cells in 200 μL of cells suspension in the right front flank via a 1 mL LS 25GA syringe. […] Body weight was assessed immediately before dosing and volume dosed was adjusted accordingly. Tumor volume was measured twice weekly in two dimensions using a caliper (measurable since day 4 post treatment in this study). Body weights were recorded twice weekly. One individual was responsible for tumor measurement for the duration of the study. Mice were also monitored daily for clinical signs of toxicity. Mice were euthanized using carbon dioxide at the end of the study. The two-dimension diameters of tumor were determined using a caliper. Tumor volume was calculated using the formula: […] Tumor growth inhibition (TGI) was calculated using the following formula: […] Where, treated t=treated tumor volume at time t, treated t0=treated tumor volume at time 0, vehicle t=vehicle tumor volume at time t, vehicle t0=vehicle tumor volume at time 0. The tumor volume on day 17 post treatment was analyzed using ANOVA method on logarithmic scale in SAS Enterprise Guide version: 7.15 HF3. The following comparisons were made among treatment groups, […] The combination therapy was compared to corresponding single agents. […] The EOHSA tests were adjusted by Holm's multiple comparison test. #p<0.05, ####p<0.0001.

The test system of series [3] is patients with R/R MM harboring t (11;14). The series is classed as in vivo, human. The following applies: 19 patients, 80, 160, 320 and 640 mg QD with dexamethasone, preliminary.
Series [4] can be described thus: PK analysis of Compound 1 in KMS-12-PE xenograft mice (plasma, day 14). The class given is in vivo, NCG mice. The following applies: for AUC0-24 h of Compound 1, Day 14 / Cmax of Compound 1, Day 14: plasma; for Individual animal's plasma concentration of Compound 1, 0 h post treatment / Individual animal's plasma concentration of Compound 1, 0.5 h post treatment / Individual animal's plasma concentration of Compound 1, 2 h post treatment / Individual animal's plasma concentration of Compound 1, 8 h post treatment / Individual animal's plasma concentration of Compound 1, 24 h post treatment: day 14, steady state. The procedure:
On day 14 post treatment, blood samples (about 100 μL per mouse) were collected from the retro-orbital sinus under isoflurane/oxygen anesthesia at predose 0, 0.5, 2, 8, and 24 hours after dosing of Compound 1 (3 mice per time point, every mouse was used for 2 or 3 time points). The blood was transferred to the EDTA-K2 anticoagulation tube, and the plasma was collected by centrifugation at 5,600 rpm for 7 min and was kept frozen in −80° C. until analysis.
For PK analysis, maximum plasma concentration (Cmax) and time to peak (Tmax) were got directly from the plasma concentration versus time graphs. The area under the plasma concentration-time curve (AUC) from time 0 to 24 hours post-dose (AUC0-24h) was calculated.

Setting [5] is: Compound 1 1.5 mg/kg + Dexamethasone 0.1 mg/kg p.o. QD.
The mark [6] stands for this setting: Compound 1 1.5 mg/kg + Dexamethasone 0.1 mg/kg.
Setting [7] is: Compound 1 1.5 mg/kg + Dexamethasone 1 mg/kg p.o. QD.
Setting [8] is: Compound 1 1.5 mg/kg + Dexamethasone 1 mg/kg.
Where [9] appears, read: Compound 1 1.5 mg/kg p.o. QD, single agent.
[10] abbreviates: Compound 1 1.5 mg/kg p.o. QD, 1.5 mg/kg.
[11] abbreviates: Dexamethasone 0.1 mg/kg p.o. QD.

The structures appear in SMILES notation. Values joined by “and” are separate entries in the source; they are usually repeats but may differ in a detail not shown here. Equal values may be shown once.

As for `CC(C)c1ccccc1[C@@H]1CCCN1C1CC2(CCN(c3ccc(C(=O)NS(=O)(=O)c4ccc(NCC5CCC(C)(O)CC5)c([N+](=O)[O-])c4)c(Oc4cnc5[nH]ccc5c4)c3)CC2)C1` (stereo partly drawn) [Compound 1, 2-((1H-pyrrolo[2,3-b]pyridin-5-yl)oxy)-N-((4-((((1r,4r)-4-hydroxy-4-methylcyclohexyl)methyl)amino)-3-nitrophenyl)sulfonyl)-4-(2-((S)-2-(2-isopropylphenyl)pyrrolidin-1-yl)-7-azaspiro[3.5]nonan-7-yl)benzamide], in series [1], the “drug-drug-interaction (DDI) potential between dexamethasone and Compound 1” value is given as “low”. In addition, in series [2] (Compound 1 1.5 mg/kg p.o. QD), the “TGI (%) Day 17” value was determined as 11% and the “Tumor Volume (mm^3) (Mean ± SEM) Day 17” value was found to be 1011.7 ± 103.8 mm^3. Moreover, the “clinical activity / disease control” value in series [3] is “demonstrated activity at tested dose levels, and most patients achieved disease control”. Further, in series [4] (setting [5]), the “AUC0-24 h of Compound 1, Day 14” value is 107 ng·h/mL and the “Cmax of Compound 1, Day 14” value is on record as 29.5 ng/mL. Also, in series [4] (setting [6]), the “Individual animal's plasma concentration of Compound 1, 0 h post treatment” value was “BLOQ”; the “Individual animal's plasma concentration of Compound 1, 0.5 h post treatment” value is 4.02 ng/mL and 5.2 ng/mL and 3.67 ng/mL; the “Individual animal's plasma concentration of Compound 1, 2 h post treatment” value is 36.7 ng/mL and 30.9 ng/mL and 20.8 ng/mL; the “Individual animal's plasma concentration of Compound 1, 8 h post treatment” value is 3.18 ng/mL and 6.95 ng/mL and 3.59 ng/mL. Besides, the “Individual animal's plasma concentration of Compound 1, 24 h post treatment” value in series [4] (setting [6]) is reported as “BLOQ”. Also, in series [4] (setting [7]), the “AUC0-24 h of Compound 1, Day 14” value stood at 179 ng·h/mL and the “Cmax of Compound 1, Day 14” value is given as 42.4 ng/mL. In series [4] (setting [8]), the “Individual animal's plasma concentration of Compound 1, 0 h post treatment” value is listed as “BLOQ”; the “Individual animal's plasma concentration of Compound 1, 0.5 h post treatment” value is 14.4 ng/mL and 6.94 ng/mL and 9.04 ng/mL; the “Individual animal's plasma concentration of Compound 1, 2 h post treatment” value is 54.9 ng/mL and 35.8 ng/mL and 36.4 ng/mL; the “Individual animal's plasma concentration of Compound 1, 8 h post treatment” value was 5.15 ng/mL and 7.02 ng/mL and 5.05 ng/mL. Also, the “Individual animal's plasma concentration of Compound 1, 24 h post treatment” value in series [4] (setting [8]) was “BLOQ (2×) and 0.692 ng/mL”. Further, in series [4] (setting [9]), the “AUC0-24 h of Compound 1, Day 14” value was 200 ng·h/mL and the “Cmax of Compound 1, Day 14” value worked out at 55.8 ng/mL. The “exposure (AUC0-24h and Cmax) at steady state, single treatment group versus combo treatment” value in series [4] (Compound 1 1.5 mg/kg p.o. QD, with or without dexamethasone) is on record as “consistent with that in combo treatment”. Further, the “Individual animal's plasma concentration of Compound 1, 24 h post treatment” value in series [4] (Compound 1 1.5 mg/kg p.o. QD) was “BLOQ”. In series [4] (setting [10]), the “Individual animal's plasma concentration of Compound 1, 0 h post treatment” value was 1.09 ng/mL and BLOQ (2×); the “Individual animal's plasma concentration of Compound 1, 0.5 h post treatment” value is 8 ng/mL and 5.72 ng/mL and 9.29 ng/mL; the “Individual animal's plasma concentration of Compound 1, 2 h post treatment” value is 62.8 ng/mL and 40.7 ng/mL and 63.9 ng/mL; the “Individual animal's plasma concentration of Compound 1, 8 h post treatment” value is 9.97 ng/mL and 9.73 ng/mL and 5.81 ng/mL.

As to `C[C@@H]1C[C@H]2[C@@H]3CCC4=CC(=O)C=C[C@]4(C)[C@@]3(F)[C@@H](O)C[C@]2(C)[C@@]1(O)C(=O)CO` [Dexamethasone], in series [2] (setting [11]), the “TGI (%) Day 17” value came out at 9% and the “Tumor Volume (mm^3) (Mean ± SEM) Day 17” value was 1036.5 ± 88.8 mm^3. In series [2] (Dexamethasone 1 mg/kg p.o. QD), the “TGI (%) Day 17” value worked out at 46% and the “Tumor Volume (mm^3) (Mean ± SEM) Day 17” value turned out to be 696.0 ± 69.2 mm^3.

(Values after patent US20250161279A1, “METHODS OF TREATING MULTIPLE MYELOMA USING BCL-2 INHIBITOR” (BeiGene Switzerland GmbH, priority 2022, published 2025).)
